The record followed here is patent US6656690B2, “Mass spectrometric methods for biomolecular screening” (priority 1998, dated 2003).

SMILES strings stand for the structures. pKd: −log10 of the molar value.

The target of assay [1] is 27-mer model of the bacterial A site region, full ribonucleotide R. Briefly: Binding to 27-mer A site model as full ribonucleotide (R). As to conditions: RNA R. The procedure:
(§1) The 27-mer model of a segment of the bacterial A site region has been prepared as a full ribonucleotide (see FIG. 27, compound R), and as a chimeric 2′-O-methylribonucleotide containing three deoxyadenosine residues (see FIG. 27, compound C). RNAs R and C have been prepared using conventional phosphoramidite chemistry on solid support. Phosphoramidites were purchased from Glen Research and used as 0.1 M solutions in acetonitrile. RNA R was prepared following the procedure given in Wincott, et al., Nucl. Acids Res., 1995, 23, 2677-2684, the disclosure of which is incorporated herein by reference in its entirety. RNA C was prepared using standard coupling cycles, deprotected, and precipitated from 10 M NH4OAc. The aminoglycoside paromomycin binds to both R and C with kD values of 0.25 and 0.45 micromolar, respectively. The reported kD values are around 0.2 μM. […]
(§2) The mass spectrum obtained from a 5 μM solution of C mixed with 125 nM paromomycin (FIG. 28A) contains [M-5H]5− ions from free C at m/z 1783.6 and the [M-5H]5− ions of the paromomycin-C complex at m/z 1907.3. […] Signals from the [M-4H]4− ions of C and the complex are detected at m/z 2229.8 and 2384.4, respectively. […] Fragment ions are detected at m/z 1005.6 (w6)2−, 1065.8 (a7-B)2−, 1162.6 (w7)2−, 1756.5 (M-Ad)5−, 2108.9 (w21-Ad)3−, 2153.4 (a20-B)3−, 2217.8 (w21)3−, and 2258.3 (a21-B)3−. […]

Assay [2] addresses 27-mer model of the bacterial A site region, chimeric C. The assay is described as follows: Binding to 27-mer A site model as chimeric 2'-O-methylribonucleotide with three deoxyadenosines (C). The note with it: RNA C. The method, then:
as §1, §2

Consider `NC[C@@H]1O[C@H](O[C@H]2[C@@H](O)[C@H](O[C@@H]3[C@@H](O)[C@H](N)C[C@H](N)[C@H]3O[C@H]3O[C@H](CO)[C@@H](O)[C@H](O)[C@H]3N)O[C@@H]2CO)[C@H](N)[C@@H](O)[C@@H]1O` [paromomycin], for which the pKd (usually the negative decadic logarithm of the Kd, by convention in mol/L) in assay [1] is 6.60; in assay [2], 6.35.
